In article PMC4414177, “A novel orally active water-soluble inhibitor of human glutathione transferase exerts a potent and selective antitumor activity against human melanoma xenografts” (Oncotarget, 2015):

Assays:
SK23-MEL cells = assay: Caspase-3 activity in cell lysates; type: cell-based, human; conditions: 7 μM
Protocol: (§1) Apoptosis was confirmed by measuring caspase-3 activity, at 25°C, in total cell lysates, using the model fluorescent peptide substrate N-Acetyl-Asp-Glu-Val-Asp-7-amido-4-trifluoromethylcoumarin (Ac-DEVD-AFC). […] Caspase activity was expressed as change in fluorescence per min, per 10^6 cells.

A375 cells = assay: Caspase-3 activity in cell lysates; type: cell-based, human; conditions: A375, 10 μM
Protocol: as §1

GSTM2-2 = molecular target: T1, GSTM2-2 (Homo sapiens, UniProt P28161); assay: Inhibition of GSTM2-2 conjugation activity; type: biochemical; conditions: GSTM2-2 5 nM
T1 construct: made in house; host or cells: Escherichia coli
T1 sequence (P28161 1-218): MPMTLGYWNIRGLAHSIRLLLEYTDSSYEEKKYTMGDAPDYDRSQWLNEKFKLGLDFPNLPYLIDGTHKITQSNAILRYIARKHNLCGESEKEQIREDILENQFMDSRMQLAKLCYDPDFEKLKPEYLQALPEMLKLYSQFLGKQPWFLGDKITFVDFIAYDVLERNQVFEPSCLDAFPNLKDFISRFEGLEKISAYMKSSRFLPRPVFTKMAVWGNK
Protocol: Human GSTM2-2, GSTP1-1, JNK1a2 and TRAF2 were expressed in Escherichia coli and purified as previously described; protein concentration was determined using the Lowry colorimetric assay. Unless specified otherwise, all chemicals were purchased from Sigma-Aldrich S.r.l. (Milan, Italy).
GST activity was determined spectrophotometrically at 340 nm (ε = 9,600 M^−1 cm^−1), as previously reported. Inhibition experiments were performed by measuring GSTP1-1 (20 nM) or GSTM2-2 (5 nM) activities in the presence of various amounts of the selected NBD derivative (from 0.1 to 20 μM with GSTP1-1, and from 0.005 and 1 μM with GSTM2-2). Fifty percent inhibitory concentration (IC50) values were calculated by fitting the data to Equation 1, where ν is the percentage of the saturated binding sites; [P]t is the total GST concentration and [L]t is the total inhibitor concentration, assuming a 1:1 interaction stoichiometry between the inhibitor and one GST subunit, as well as that the binding sites are equal and independent.

A375 human melanoma = assay: A375 fragment xenograft model, antitumor efficacy; type: in vivo, mice; conditions: MC3181 i.v. 8mg/kg/d q1dx5 three weeks
Protocol: With regard to the in vivo fragment tumor model, A375 cells were injected (1×10^7) subcutaneously (s.c.) into the right flank of an athymic Nude-Foxn1nu female mouse, and the established primary tumor was then removed and cut into fragments (2–3 mm diameter) and implanted s.c. into recipient mice. Animals were randomly divided in groups of 7 mice and treatment was initiated when a tumor volume of 0.12 ± 0.01 cm^3 (mean ± SEM) was reached.
The reference drug temozolomide, dissolved in DMSO/PBS 1:1 to a final concentration of 10 mg/ml, was administered i.p. q1dx5 at a dose of 100mg/kg/day.
Primary tumor growth was determined for all animals by caliper measurement (minor and major axis length), three times per week, until they were sacrificed. Primary tumor volume was determined using the following equation: V (cm^3)=(α^2×β)/2 (Eq. 3)
The efficacy of the treatment was also analyzed by calculation of the percentage of Increase in Life Span (% ILS), since this analysis gives an evidence of clinical potency. Survival endpoint for each animal was fixed at the day when tumor volume reached 1.0 cm^3 (A375) or 0.4 cm^3 (SK23-MEL and G-361), and data were used to plot the relative Kaplan-Meier curves. Treatment efficacy was then evaluated by comparing the Median Survival Time (MST) of treated group with the MST of control group, and expressed as percentage of ILS: % ILS=[100×(MSTtreated group)/(MSTcontrol group)]−100 (Eq. 4)
Treatment was considered effective when % ILS > 20%.

O=[N+]([O-])c1ccc(SCCOCCOCCO)c2nonc12 [MC3181, 2-(2-(2-((7-nitrobenzo[c][1,2,5]oxadiazol-4-yl)thio)ethoxy)ethoxy)ethanol]
caspase-3 activation (SK23-MEL cells): negligible increase of proteolitic activity | caspase-3 activation (A375 cells): strong caspase-3 activity | IC50 (GSTM2-2): 81 ± 13 nM | %ILS (A375 human melanoma; TMZ i.p. 100 mg/kg/d q1dx5): 53% | tumor growth (A375 human melanoma; TMZ i.p. 100 mg/kg/d q1dx5, from day 13 onward, P < 0.05): significantly delayed tumor growth
